Laboratory results as given in patent US9416128B2, “Fused heterocyclic compounds as ion channel modulators” (Gilead Sciences, Inc., priority 2013, dated 2016).
Where two headings read alike, the source gives them in different places.

What was measured:
[1] = biological target: wild-type human cardiac sodium channel, hNaV 1.5 (Peak INa) (Homo sapiens, UniProt Q14524); experiment: Peak INa screening assay (tonic block and use-dependent block); assay type: cell-based
Protocol: The assay uses an HEK293 (human embryonic kidney) cell line heterologously expressing the wild-type human cardiac sodium channel, hNaV 1.5, purchased from Millipore (Billerica, Mass.). No beta subunits were coexpressed with the Na channel alpha subunit. Cells are maintained with standard tissue culture procedures and stable channel expression is maintained with 400 μg/mL Geneticin in the culture medium. […] Currents are digitized at 25 kHz and low-pass filtered at 5 kHz and stored in the Sophion Bioscience Oracle database (Sophion Bioscience, Copenhagen, Denmark). Analysis is performed using QPatch Assay software and data are compiled in Excel 2010 (Microsoft, Seattle, Wash., U.S.A.). Compound stocks are routinely made by the Gilead Sample Bank in vials to 10 mM in dimethyl sulfoxide (DMSO). In some cases, when compounds are not soluble in DMSO, they are made in 100% ethanol. Stocks are sonicated as necessary. The extracellular solution for screening Late INa is composed of: 140 mM NaCl, 4 mM KCl, 1.8 mM CaCl2, 1 mM MgCl2, 10 mM HEPES and 10 mM Dextrose with pH adjusted to 7.35 using NaOH. The intracellular solution contains: 105 mM CsF, 20 mM CsCl, 10 NaF, 2 mM EGTA, 10 mM HEPES and 10 mM Dextrose with pH adjusted to 7.35 with CsOH. Compounds are diluted in extracellular solution using a MicroLab Nimbus (Hamilton Robotics, Reno, Nev.) to between 0.3 and 3 μM in glass vials and transferred to glass well plates before robotic addition to the cells. […] It is contemplated that the compounds of Formula I avoid significant block of peak INa. […] The intracellular solution used for the Peak INa assay is the same as outlined for the Late INa assay (see above). After establishing the whole cell recording configuration, channels were stimulated to open with low frequency (0.1 Hz) for so that the recording can be monitored and the extent to which the recording has stabilized can be assessed. The test compound is then applied at 1 or 3 μM was added 2 times at 60 second intervals. After the second compound addition, a 200 second wait period was imposed to allow for equilibration. Voltage protocols for TB and UDB are were performed in the absence and presence of compound and TB and UDB are calculated with respect to the compound free condition. Both TB and UDB were analyzed by incorporating rundown correction for the peak INa.

[2] = biological target: hNaV1.1 (SCN1A) (Homo sapiens, UniProt P35498); experiment: Use-dependent inhibition of the CNS NaV1.1 sodium channel; assay type: cell-based; details: % inhibition, 25 Hz; for inhibition at 1 µM: use-dependent block at 1 uM, read-out: Nav1.1 UDB 25 Hz 1 uM; for inhibition at 10 µM: use-dependent block at 10 uM, read-out: Nav1.1 UDB 25 Hz 10 uM
Protocol: HEK-293 cells stably expressing wild-type (WT) hNaV1.1 (SCN1A, NCBI# AB09354) were obtained from Millipore (Cat. # CYL3009) were used to record INa. Cells are maintained with standard tissue culture procedures and stable channel expression is maintained with 400 ug/mL G418 in the culture medium. Unless otherwise noted, all reagents are purchased from Sigma-Aldrich (St Louis, Mo., U.S.A.).
Assays measuring Use-Dependent Block (UDB) of NaV1.2 are performed on an automated electrophysiology platform, QPatch 16X or QPatch HT (Sophion Bioscience, Copenhagen, Denmark), using the whole cell patch clamp technique to measure currents through the cell membrane. Series resistance compensation is set to 100% and series resistance and whole-cell compensation are performed automatically. Currents stored in the Sophion Bioscience Oracle database (Sophion Bioscience, Copenhagen, Denmark). Analysis is performed using QPatch Assay software and data are compiled in Excel 2010 (Microsoft, Seattle, Wash., U.S.A.).
The internal (pipette) solution consists of (in mM) 105 CsF, 10 NaF, 20 CsCl, 2 EGTA, 10 HEPES, 10 Dextrose with a pH of 7.35 and osmolarity of 300 mOsmol/kg. The external (bath) solution contains in (mM): 145 NaCl, 4 KCl, 1.8 CaCl2, 1 MgCl2, 10 dextrose, 10 HEPES, with a pH of 7.35 and osmolarity of 310 mOsmol/kg. Experiments are carried out at 23-25° C.
Compound stocks are routinely made by the Gilead Sample Bank in vials to 10 mM in dimethyl sulfoxide (DMSO). In some cases, when compounds are not soluble in DMSO, they are made in 100% ethanol. Stocks are sonicated as necessary. […]
Cells are allowed to stabilize for 10 min after establishment of the whole-cell configuration before current is measured. The test compound is applied 2 times at 60 second intervals. After the second compound addition, a 200 second wait period was imposed to allow for equilibration.
Leak currents are subtracted by using an online P/4 procedure and all currents are low-pass Bessel filtered at 5 kHz and digitized at […].
Use-dependent block of NaV1.2 peak current is measured during pulse number 20 of a voltage pulse train (0 mV, 20 ms, 20 pulses, 25 Hz) from a holding potential of −120 mV. Currents are normalized to the peak current recorded in response to the first pulse in each frequency train. The voltage protocol for UDB was performed in the absence and presence of compound and percentage inhibition was calculated with respect to the compound free condition. Results are presented as mean percentage inhibition and data analysis is performed using QPatch Assay Software 4.0, and Excel 2002 (Microsoft, Seattle, Wash., U.S.A.).

[3] = % inhibition, use-dependent block of peak INa at 3 uM, 3 Hz, pulse 50, read-out: Nav1.5 Peak UDB 3 Hz 3 uM
[4] = read-out: Nav1.5 Peak TB 3 uM, % inhibition, tonic block of peak INa at 3 uM, 0.1 Hz, holding -100 mV

wild-type human cardiac sodium channel, hNaV 1.5 (Peak INa), sequence (Q14524 whole entry): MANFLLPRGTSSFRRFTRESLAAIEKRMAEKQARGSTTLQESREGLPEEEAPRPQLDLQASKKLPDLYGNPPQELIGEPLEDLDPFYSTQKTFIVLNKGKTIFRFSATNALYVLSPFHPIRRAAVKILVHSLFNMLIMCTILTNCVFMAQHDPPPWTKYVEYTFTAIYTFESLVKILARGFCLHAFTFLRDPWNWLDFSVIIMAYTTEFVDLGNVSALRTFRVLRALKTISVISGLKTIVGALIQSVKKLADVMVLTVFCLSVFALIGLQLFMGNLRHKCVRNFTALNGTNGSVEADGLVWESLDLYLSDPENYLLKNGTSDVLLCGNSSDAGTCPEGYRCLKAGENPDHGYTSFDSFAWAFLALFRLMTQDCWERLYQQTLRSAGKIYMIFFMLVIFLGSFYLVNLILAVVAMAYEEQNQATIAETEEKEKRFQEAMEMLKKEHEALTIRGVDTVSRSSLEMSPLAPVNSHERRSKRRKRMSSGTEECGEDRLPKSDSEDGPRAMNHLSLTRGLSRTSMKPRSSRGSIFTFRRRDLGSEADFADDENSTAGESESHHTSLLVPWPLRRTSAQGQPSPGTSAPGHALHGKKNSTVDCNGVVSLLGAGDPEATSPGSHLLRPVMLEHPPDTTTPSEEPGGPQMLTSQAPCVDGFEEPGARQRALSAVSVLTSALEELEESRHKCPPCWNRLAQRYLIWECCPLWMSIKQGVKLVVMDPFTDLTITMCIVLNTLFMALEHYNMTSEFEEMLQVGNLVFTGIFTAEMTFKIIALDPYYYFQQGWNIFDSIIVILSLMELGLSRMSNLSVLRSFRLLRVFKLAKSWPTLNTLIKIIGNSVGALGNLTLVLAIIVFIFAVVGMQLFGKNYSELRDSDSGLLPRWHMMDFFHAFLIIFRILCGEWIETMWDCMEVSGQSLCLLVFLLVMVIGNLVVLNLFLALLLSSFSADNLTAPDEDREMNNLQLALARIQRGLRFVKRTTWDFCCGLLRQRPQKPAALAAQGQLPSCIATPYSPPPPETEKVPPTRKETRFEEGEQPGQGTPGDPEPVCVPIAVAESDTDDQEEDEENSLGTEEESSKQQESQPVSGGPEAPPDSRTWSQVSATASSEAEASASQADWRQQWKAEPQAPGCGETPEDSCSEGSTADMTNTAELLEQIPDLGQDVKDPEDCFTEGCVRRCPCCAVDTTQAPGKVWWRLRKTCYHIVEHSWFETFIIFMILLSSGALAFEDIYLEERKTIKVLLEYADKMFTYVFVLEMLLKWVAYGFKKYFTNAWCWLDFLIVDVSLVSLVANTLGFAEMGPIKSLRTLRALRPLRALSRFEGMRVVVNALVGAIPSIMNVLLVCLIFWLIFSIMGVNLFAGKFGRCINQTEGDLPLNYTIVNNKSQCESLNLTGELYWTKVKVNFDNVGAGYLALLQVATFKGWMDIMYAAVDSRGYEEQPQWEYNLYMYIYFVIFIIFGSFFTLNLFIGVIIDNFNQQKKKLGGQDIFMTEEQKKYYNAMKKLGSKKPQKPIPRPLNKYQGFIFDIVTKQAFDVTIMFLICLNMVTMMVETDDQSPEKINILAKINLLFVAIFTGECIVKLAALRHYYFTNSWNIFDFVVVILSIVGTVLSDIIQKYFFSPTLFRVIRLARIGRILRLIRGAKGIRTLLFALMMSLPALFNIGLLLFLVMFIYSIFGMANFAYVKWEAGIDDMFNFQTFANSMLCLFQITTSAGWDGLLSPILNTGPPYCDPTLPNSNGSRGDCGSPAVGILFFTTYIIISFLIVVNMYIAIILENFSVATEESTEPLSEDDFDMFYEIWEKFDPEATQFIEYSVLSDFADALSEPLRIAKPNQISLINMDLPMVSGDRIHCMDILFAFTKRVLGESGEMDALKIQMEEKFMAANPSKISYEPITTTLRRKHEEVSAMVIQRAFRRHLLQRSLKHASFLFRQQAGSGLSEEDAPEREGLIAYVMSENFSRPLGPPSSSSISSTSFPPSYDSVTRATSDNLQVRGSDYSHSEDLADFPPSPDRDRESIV

Row | SMILES | inhibition at 3 µM [1, 3] | inhibition at 3 µM [1, 4] | inhibition at 1 µM [2] | inhibition at 10 µM [2]
1 | O=C1Oc2ccc(-c3ccc(OC(F)(F)F)cc3)cc2CN1Cc1ccccn1 [Example 20, 3-(pyridin-2-ylmethyl)-6-(4-(trifluoromethoxy)phenyl)-3,4-dihydro-2H-benzo[e][1,3]oxazin-2-one] | 5.1% | 32.8% | 29.1% | 82%
2 | O=C1Oc2ccc(-c3ccc(OC(F)(F)F)cc3F)cc2CN1Cc1ccccn1 [Example 21, 6-(2-fluoro-4-(trifluoromethoxy)phenyl)-3-(pyridin-2-ylmethyl)-3,4-dihydro-2H-benzo[e][1,3]oxazin-2-one] | < 5% | 23% | < 5% | 50.8%
3 | COc1cc(OC(F)(F)F)ccc1-c1ccc2c(c1)CN(Cc1ccccn1)C(=O)O2 [Example 22, 6-(2-methoxy-4-(trifluoromethoxy)phenyl)-3-(pyridin-2-ylmethyl)-3,4-dihydro-2H-benzo[e][1,3]oxazin-2-one] | < 5% | 24.9% | < 5% | 56.3%
4 | Cc1cc(OC(F)(F)F)ccc1-c1ccc2c(c1)CN(Cc1ccccn1)C(=O)O2 [Example 23, 6-(2-methyl-4-(trifluoromethoxy)phenyl)-3-(pyridin-2-ylmethyl)-3,4-dihydro-2H-benzo[e][1,3]oxazin-2-one] | < 5% | 19.4% | 5.2% | 75.2%
5 | O=C1Oc2ccc(-c3ccc(C(F)(F)F)cc3)cc2CN1Cc1ccccn1 [Example 24, 3-(pyridin-2-ylmethyl)-6-(4-(trifluoromethyl)phenyl)-3,4-dihydro-2H-benzo[e][1,3]oxazin-2-one] | 5.9% | 28.5% | 44.9% | 79.6%
6 | CC(C)Oc1cc(C(F)(F)F)ccc1-c1ccc2c(c1)CN(Cc1ncccn1)C(=O)O2 [Example 25, 6-(2-isopropoxy-4-(trifluoromethyl)phenyl)-3-(pyrimidin-2-ylmethyl)-3,4-dihydro-2H-benzo[e][1,3]oxazin-2-one] | < 5% | 29.7% | 31.7% | 75.3%
7 | O=C1Oc2ccc(-c3ccc4c(c3)OC(F)(F)O4)cc2CN1Cc1ncccn1 [Example 26, 6-(2,2-difluorobenzo[d][1,3]dioxol-5-yl)-3-(pyrimidin-2-ylmethyl)-3,4-dihydro-2H-benzo[e][1,3]oxazin-2-one] | < 5% | 20.7% | 14.8% | 66.1%
8 | CCCOc1cc(C(F)(F)F)ccc1-c1ccc2c(c1)CN(Cc1ncccn1)C(=O)O2 [Example 27, 6-(2-propoxy-4-(trifluoromethyl)phenyl)-3-(pyrimidin-2-ylmethyl)-3,4-dihydro-2H-benzo[e][1,3]oxazin-2-one] | 8.1% | 32% | 28.4% | 77.5%
9 | CCCOc1cc(OC(F)(F)F)ccc1-c1ccc2c(c1)CN(Cc1ncccn1)C(=O)O2 [Example 28, 6-(2-propoxy-4-(trifluoromethoxy)phenyl)-3-(pyrimidin-2-ylmethyl)-3,4-dihydro-2H-benzo[e][1,3]oxazin-2-one] | 6.9% | 12.9% | 25.2% | 67.4%
10 | Cc1ccnc(CN2Cc3cc(-c4ccc(OC(F)(F)F)cc4)ccc3OC2=O)n1 [Example 29, 3-((4-methylpyrimidin-2-yl)methyl)-6-(4-(trifluoromethoxy)phenyl)-3,4-dihydro-2H-benzo[e][1,3]oxazin-2-one] | 14.1% | 36.1% | 44.7% | 86.8%
11 | Cc1ccnc(CN2Cc3cc(-c4ccc(C(F)(F)F)cc4)ccc3OC2=O)n1 [Example 30, 3-((4-methylpyrimidin-2-yl)methyl)-6-(4-(trifluoromethyl)phenyl)-3,4-dihydro-2H-benzo[e][1,3]oxazin-2-one] | 13.2% | 36.5% | 49.7% | 87.5%
12 | COc1cc(OC(F)(F)F)ccc1-c1ccc2c(c1)CN(Cc1nccc(C)n1)C(=O)O2 [Example 31, 6-(2-methoxy-4-(trifluoromethoxy)phenyl)-3-((4-methylpyrimidin-2-yl)methyl)-3,4-dihydro-2H-benzo[e][1,3]oxazin-2-one] | < 5% | 12.2% | 6% | 53.3%
13 | Cc1ccnc(CN2Cc3cc(-c4ccc(OC(F)(F)F)cc4F)ccc3OC2=O)n1 [Example 32, 6-(2-fluoro-4-(trifluoromethoxy)phenyl)-3-((4-methylpyrimidin-2-yl)methyl)-3,4-dihydro-2H-benzo[e][1,3]oxazin-2-one] | < 5% | 33.1% | 10.8% | 61.8%
14 | Cc1ccnc(CN2Cc3cc(-c4ccc(OC(F)(F)F)cc4C)ccc3OC2=O)n1 [Example 33, 6-(2-methyl-4-(trifluoromethoxy)phenyl)-3-((4-methylpyrimidin-2-yl)methyl)-3,4-dihydro-2H-benzo[e][1,3]oxazin-2-one] | < 5% | 27.8% | 5.5% | 61.4%
15 | COc1cc(C(F)(F)F)ccc1-c1ccc2c(c1)CN(Cc1ncccn1)C(=O)O2 [Example 34, 6-(2-methoxy-4-(trifluoromethyl)phenyl)-3-(pyrimidin-2-ylmethyl)-3,4-dihydro-2H-benzo[e][1,3]oxazin-2-one] | < 5% | 27.7% | 26.9% | 76.1%
16 | CCOc1cc(C(F)(F)F)ccc1-c1ccc2c(c1)CN(Cc1ncccn1)C(=O)O2 [Example 35, 6-(2-ethoxy-4-(trifluoromethyl)phenyl)-3-(pyrimidin-2-ylmethyl)-3,4-dihydro-2H-benzo[e][1,3]oxazin-2-one] | 9.7% | 20.2% | 37.6% | 80.4%
17 | O=C1Oc2ccc(-c3ccc(C(F)(F)F)cc3F)cc2CN1Cc1ncccn1 [Example 36, 6-(2-fluoro-4-(trifluoromethyl)phenyl)-3-(pyrimidin-2-ylmethyl)-3,4-dihydro-2H-benzo[e][1,3]oxazin-2-one] | 5.9% | 11.5% | 22.8% | 68.7%
